The record followed here is patent EP0137439A2, “Antitumour agent” (Henkel Kommanditgesellschaft auf Aktien, priority 1983, dated 1985).

In this experiment the test system is Tumorart P 388 (Leukämie). Put plainly: P 388 leukemia survival test in mice, NCI protocol 1200. The note with it: P 388 i.p. in mice; for T/C-Wert: aqueous 1% injection solution, rate of survival prolongation vs untreated animals; for 30 Tage überlebende Tiere (von 6): animals out of 6 alive at 30 days. Format: in vivo, Mäusen. The source says:
Epoxid-0: gef. 18,94 %, ber. 18,82 % Die nachfolgenden Versuche wurden durchgeführt nach Testvorschriften des National Cancer Institute Bethesda, Maryland 200014, veröffentlicht in "Cancer Chemotherapy Reports" Part. 3, September 1972, Vol. 3, Nr. 2. Als Wirksubstanz wurde 1,2-Diglycidyl-4-diglycidylamino- urazol des vorstehenden Beispiels 1 verwendet. Die Substanz wurde als wäßrige, 1%ige In jektions lösung unmittelbar vor der Applikation frisch hergestellt.
Bei Mäusen wurde gemäß Protokoll 1200 (S. 91c) die Tumorart P 388 (Leukämie) i.p. mit […] gesetzt. Die mittlere Uberlebensdauer der unbehandelten Tiere wird bestimmt.
In weiteren Versuchsgruppen wird entsprechend vorbehandelten Tieren der Wirkstoff applizi-ert. Es wird eine signifikante Verlängerung der Lebensdauer der behandelten Testtiere gegenüber der mittleren Überlebensdauer der nicht mit dem Wirkstoff behandelten Tiere erzielt. Die Verlängerungsrate T/C in Abhängigkeit von der Dosierung des Wirkstoffes ist in der folgenden Tabelle zusammengestellt: […]

In the case of `O=c1n(N(CC2CO2)CC2CO2)c(=O)n(CC2CO2)n1CC1CO1` (stereo not drawn) [1,2-Diglycidyl-4-diglycidyl-aminourazol, 1,2-Diglycidyl-4-diglycidylamino-urazol], the T/C-Wert by setting is: (dose 25 mg/kg) 155; (dose 50 mg/kg) more than 300; (dose 6,25 mg/kg) 291; (dose 12,5 mg/kg) 142. The “30 Tage überlebende Tiere (von 6)” value was 6 (dose 50 mg/kg) and 3 (dose 6,25 mg/kg).
Turning to `O=c1n(CC2CO2)c(=O)n(CC2CO2)n1CC1CO1` (stereo not drawn) [Triglycidylurazol], the “30 Tage überlebende Tiere (von 6)” value runs as follows: (dose 25 mg/kg) 4; (dose 50 mg/kg) 6. This compound returned a T/C-Wert (dose 25 mg/kg) of 260, a T/C-Wert (dose 50 mg/kg) of 300, a T/C-Wert (dose 6,25 mg/kg) of 180 and a T/C-Wert (dose 12,5 mg/kg) of 230.
